The values that follow come from US5102897A, “3,5-ditertiarybutyl-4-hydroxyphenyl, 1,3,4-thiadiazoles and oxadiazoles linked by carbon, oxygen, and sulfur residues” (Warner-Lambert Company, priority 1991, dated 1992).

In one assay the target is T1, Cyclooxygenase (Rattus norvegicus, UniProt Q63921).
T1 construct: host or cells: RBL-1 (rat basophilic leukemia)
T1 sequence (Q63921 27-602): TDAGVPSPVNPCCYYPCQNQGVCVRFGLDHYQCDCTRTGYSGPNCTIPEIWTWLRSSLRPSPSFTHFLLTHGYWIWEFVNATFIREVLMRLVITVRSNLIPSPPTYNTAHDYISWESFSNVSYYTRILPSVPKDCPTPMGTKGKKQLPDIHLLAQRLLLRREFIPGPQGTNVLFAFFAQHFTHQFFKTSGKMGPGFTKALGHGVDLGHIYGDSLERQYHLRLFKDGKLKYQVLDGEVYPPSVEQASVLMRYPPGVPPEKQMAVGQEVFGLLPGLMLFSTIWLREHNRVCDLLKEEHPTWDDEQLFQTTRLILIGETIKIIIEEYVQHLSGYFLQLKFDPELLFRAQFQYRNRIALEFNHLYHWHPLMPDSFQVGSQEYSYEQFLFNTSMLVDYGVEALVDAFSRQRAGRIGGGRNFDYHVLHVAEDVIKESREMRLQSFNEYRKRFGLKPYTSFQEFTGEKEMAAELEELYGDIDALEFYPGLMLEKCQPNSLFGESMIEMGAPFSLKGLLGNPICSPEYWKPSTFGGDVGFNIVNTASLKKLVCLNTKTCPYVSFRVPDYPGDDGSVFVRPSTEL
Kind of assay: ARBC whole cell cyclooxygenase assay (RBL-1 cells, PGF2α formation, RIA). It is filed as cell-based. Particulars: RBL-1 whole cells; for IC50: calcium ionophore A23187 (5 μM), read-out: ARBC: IC50 for PGF2α inhibition; for inhibition at 10 µM: read-out: ARBC: Percent inhibition of PGF2α @ 10 μM. The protocol: (§1) ARBL/ARBC Whole Cell 5-Lipoxygenase and Cyclooxygenase Assays
(§2) The rat basophilic leukemia cell line (RBL-1) was obtained from the American Type Culture Collection (Rockville, MD).
(§3) Radioimmunoassay (RIA) kits of LTB4 and PGF2.sbsb.α were obtained from Amersham (Arlington Heights, Ill.) and Seragen (Boston, Mass.), respectively.
(§4) RBL-1 cells are grown in suspension culture in Eagle's minimum essential medium supplemented with 12% fetal bovine serum at 37° C. in an incubator supplied with air-5% carbon dioxide. Cells are harvested by centrifugation. They are washed with cold phosphate buffered saline pH 7.4 (PBS; NaCl, 7.1 g; Na2 HPO4, 1.15 g; KH2 PO4, 0.2 g; and KCl, 0.2 g/L). Cells are finally suspended in PBS containing 1.0 mM calcium at a density of 2×10^6 cells/mL. Cells are incubated with and without test agent (in DMSO) (1% DMSO is without effect on arachidonic acid metabolism) for ten minutes at room temperature. Calcium ionophore A23187 (5 μM) is added and cells are incubated for 7 minutes at 37° C. The reaction is stopped by chilling the tubes on ice for 10 minutes. Cells are separated by centrifugation and the supernatant is stored at -20° C. Aliquots (100 μL) are analyzed for LTB4 and PGF2.sbsb.α using radioimmunoassay kits as provided by the supplier.
(§5) Table 1 contains biochemical data obtained from this whole cell assay as IC50 s which are calculated as the amount of test compound causing 50% inhibition or percent of inhibition at the named micromoles (μM) of LTB4 or PGF2.sbsb.α formation.

A further assay addresses T2, 5-Lipoxygenase (Rattus norvegicus, UniProt P12527).
T2 construct: host or cells: RBL-1 (rat basophilic leukemia)
T2 sequence (P12527 1-673): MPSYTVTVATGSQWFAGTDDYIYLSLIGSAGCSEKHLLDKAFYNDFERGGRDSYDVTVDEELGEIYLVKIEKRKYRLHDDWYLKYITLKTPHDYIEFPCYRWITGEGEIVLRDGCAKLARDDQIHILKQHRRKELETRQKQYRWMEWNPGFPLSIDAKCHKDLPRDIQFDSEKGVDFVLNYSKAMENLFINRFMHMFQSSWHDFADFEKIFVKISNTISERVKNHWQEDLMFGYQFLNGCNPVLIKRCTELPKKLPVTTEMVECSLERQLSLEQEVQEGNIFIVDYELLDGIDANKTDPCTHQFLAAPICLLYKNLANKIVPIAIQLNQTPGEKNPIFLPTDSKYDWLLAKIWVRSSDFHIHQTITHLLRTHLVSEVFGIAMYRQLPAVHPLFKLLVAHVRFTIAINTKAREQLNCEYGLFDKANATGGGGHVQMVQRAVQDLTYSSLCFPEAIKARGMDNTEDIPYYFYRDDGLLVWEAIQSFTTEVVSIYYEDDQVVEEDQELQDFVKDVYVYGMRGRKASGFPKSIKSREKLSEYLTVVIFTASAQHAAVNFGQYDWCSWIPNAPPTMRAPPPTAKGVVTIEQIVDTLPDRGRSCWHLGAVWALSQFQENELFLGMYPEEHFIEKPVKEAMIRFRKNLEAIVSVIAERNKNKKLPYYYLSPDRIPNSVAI
Kind of assay: ARBL whole cell 5-lipoxygenase assay (RBL-1 cells, LTB4 formation, RIA). It is filed as cell-based. Particulars: RBL-1 whole cells; for inhibition at 16 µM / inhibition at 10 µM: A23187, read-out: ARBL: Percent inhibition of LTB4 @ μM noted; for IC50: calcium ionophore A23187 (5 μM), read-out: ARBL: IC50 for LTB4 inhibition. The method, then:
as §1, §2, §3, §4, §5

The test system of assay [1] is Carrageenan-Induced Rat Foot Paw Edema. Kind of assay: Carrageenan-Induced Rat Foot Paw Edema-2 (CFE-2) Assay. It is filed as in vivo. Particulars: dosed 1 hour before carrageenan, edema measured 5 hours after, probit analysis, read-out: CFE: ID40 for inhibition of swelling. The protocol:
Carrageenan-Induced Rat Foot Paw Edema-2 (CFE-2) Assay: Protocol
Carrageenan solution (1% w/v) is prepared by dissolving 100 mg carrageenan (Marine Colloidal Div., Springfield, N.J.) in 10 mL of sterile saline (0.9) solution (Travenol). The solution is vortexed for 30 to 45 minutes. Animals are dosed with compound 1 hour before carrageenan challenge. Foot paw edema is induced by injecting 0.10 mL of the 1% carrageenan subcutaneously into the plantar portion of the right hind paw of each rat under light anesthesia. Initial foot paw volume is measured immediately following carrageenan challenge using mercury plethysmography (Buxco Electronics). Edema is measured 5 hours after carrageenan. The difference between the 5-hour and the initial paw volume is expressed as delta edema. The delta edema for each test group of animals is used to calculate the percent inhibition of edema achieved by the compound at the test dose compared with the vehicle control group. The data in Table 1 (the dose at which swelling is inhibited by the noted) is calculated by probit analysis for the dose at which percent inhibition occurs.

SMILES strings stand for the structures.

For `CC(C)(C)c1cc(Sc2n[nH]c(=O)o2)cc(C(C)(C)C)c1O` [Example 6, 5-[[3,5-Bis(1,1-dimethylethyl)-4-hydroxyphenyl]thio]-1,3,4-oxadiazol-2(3H)-one], the “ARBC: Percent inhibition of PGF2α” value on Cyclooxygenase (@ 16 (as printed in the cell), A23187) turned out to be 46%. For the same compound, the inhibition at 16 µM on 5-Lipoxygenase was 91%.

Regarding `CC(C)(C)c1cc(Sc2n[nH]c(=S)o2)cc(C(C)(C)C)c1O` [Example 7, 5-[[3,5-Bis(1,1-dimethylethyl)-4-hydroxyphenyl]thio]-1,3,4-oxadiazole-2(3H)-thione], the IC50 came to 1500 nM on Cyclooxygenase and 2000 nM at 5-Lipoxygenase. Further, in assay [1], the ED40 amounted to 8.6 mg/kg.

Regarding `CC(C)(C)c1cc(Sc2n[nH]c(=O)s2)cc(C(C)(C)C)c1O` [Example 8, 5[[3,5-Bis(1,1-dimethylethyl)-4-hydroxyphenyl]thio]-1,3,4-thiadiazol-2(3H)-one], the inhibition at 16 µM on 5-Lipoxygenase is 90%.

Take `CC(C)(C)c1cc(Sc2n[nH]c(=S)s2)cc(C(C)(C)C)c1O` [Example 9, 5-[[3,5-Bis(1,1-dimethylethyl)-4-hydroxyphenyl]thio]-1,3,4-thiadiazole-2(3H)-thione]: the IC50 at Cyclooxygenase came to 3600 nM; at 5-Lipoxygenase it was 1100 nM.

In the case of `CC(C)(C)c1cc(Sc2nncs2)cc(C(C)(C)C)c1O` [Example 10, 2,6-Bis(1,1-dimethylethyl)-4-[(1,3,4-thiadiazol-2-yl)thio]-phenol], the inhibition at 10 µM at Cyclooxygenase (A23187) is 54%; on 5-Lipoxygenase it was 59%.

In the case of `CC(C)(C)c1cc(SCCc2n[nH]c(=O)o2)cc(C(C)(C)C)c1O` [Example 13, 5-[2-[[3,5-Bis(1,1-dimethylethyl)-4-hydroxyphenyl]thio]ethyl]-1,3,4-oxadiazol-2(3H)-one], the inhibition at 10 µM on Cyclooxygenase (A23187) came out at 75%. Also, the IC50 at 5-Lipoxygenase was 600 nM.

Turning to `CC(C)(C)c1cc(SCCc2n[nH]c(=S)o2)cc(C(C)(C)C)c1O` [Example 14, 5-[2-[3,5-Bis(1,1-dimethylethyl)-4-hydroxyphenyl]thio]ethyl-1,3,4-oxadiazole-2(3H)-thione], at 5-Lipoxygenase, the IC50 amounted to 4200 nM.

Turning to `CC(C)(C)c1cc(SCCc2nnco2)cc(C(C)(C)C)c1O` [Example 15], the figures for the inhibition at 10 µM at Cyclooxygenase (A23187) and at 5-Lipoxygenase were 55% and 100%, respectively.

In the case of `CC(C)(C)c1cc(SCCc2nnc(N)o2)cc(C(C)(C)C)c1O` [Example 16], on 5-Lipoxygenase, the inhibition at 10 µM was 100%.

With `CC(C)(C)c1cc(CCc2n[nH]c(=O)o2)cc(C(C)(C)C)c1O` [Example 23, 5-[2-[3,5-bis(1,1-dimethylethyl)-4-hydroxyphenyl]ethyl]-1,3,4-oxadiazol-2(3H)-one], the inhibition at 10 µM on 5-Lipoxygenase was found to be 60%.

For the compound `CC(C)(C)c1cc(CCc2nnco2)cc(C(C)(C)C)c1O` [Example 25, 2,6-Bis(1,1-dimethylethyl)-4-[2-(1,3,4-oxadiazol-2-yl)ethyl]phenol], the inhibition at 10 µM on Cyclooxygenase (A23187) worked out at 52%; at 5-Lipoxygenase, 100%.

Take `CC(C)(C)c1cc(CCc2nnc(N)o2)cc(C(C)(C)C)c1O` [Example 26, 4-[2-(5-Amino-1,3,4-oxadiazol-2-yl)ethyl]-2,6-bis(1,1-dimethylethyl)phenol]: on 5-Lipoxygenase, the inhibition at 10 µM came out at 40%.

As to `CC(C)(C)c1cc(C(=O)c2nnc(N)s2)cc(C(C)(C)C)c1O` [Example 29, (5-Amino-1,3,4-thiadiazol-2-yl)[3,5-bis(1,1-dimethylethyl)-4-hydroxyphenyl]methanon], the IC50 stood at 5200 nM at Cyclooxygenase and 1100 nM at 5-Lipoxygenase.

For the compound `CSc1nnc(C(=O)c2cc(C(C)(C)C)c(O)c(C(C)(C)C)c2)s1` [Example 30], the inhibition at 10 µM on Cyclooxygenase (A23187) and on 5-Lipoxygenase was 100% throughout.

Consider `CC(C)(C)c1cc(C(=O)c2n[nH]c(=S)s2)cc(C(C)(C)C)c1O` [Example 31, [3,5-Bis(1,1-dimethylethyl)-4-hydroxphenyl][5(4H)-thioxo-1,3,4-thiadiazol-2-yl]methanone], for which the inhibition at 10 µM on Cyclooxygenase (A23187) was 92%; on 5-Lipoxygenase it was 100%.
